From paper PMC12260505, “First-in-Human Phase I/IIa Study of the First-in-Class CDK2/4/6 Inhibitor PF-06873600 Alone or with Endocrine Therapy in Patients with Breast Cancer” (Clinical Cancer Research, 2025)

Experiment: Adverse events graded by NCI CTCAE version 4.03, phase I/IIa study
Assay type: in vivo
Protocol: Part 1 included adult patients with HR^+/HER2^− advanced breast cancer or mBC (third- or fourth-line setting), locally recurrent/advanced or metastatic TNBC, or advanced platinum-resistant epithelial ovarian cancer/fallopian tube cancer/primary peritoneal cancer who received oral PF-06873600 at doses of 1 to 50 mg twice daily or oral PF-06873600 plus ET (letrozole or fulvestrant). Primary endpoints for part 1 dose escalation determined safety and tolerability to define dose-limiting toxicities (DLT), estimate the maximum tolerated dose, and select the recommended dose for expansion (RDE). Safety endpoints included adverse events (AE) characterized by type, frequency, severity [as graded by NCI Common Terminology Criteria for Adverse Events (CTCAE) version 4.03], timing, seriousness, and relationship to study therapy. Laboratory abnormalities were characterized by type, frequency, severity (as graded by NCI CTCAE version 4.03), timing, vital sign abnormalities, and heart rate–corrected QT interval (e.g., QTcF). Secondary endpoints included PK, preliminary antitumor activity as assessed using RECIST version 1.1, time-to-event endpoints including objective response rate (ORR), duration of response (DoR), progression-free survival (PFS), time to progression (TTP), and modulation of tumor CDK biomarkers [phosphorylated Rb (pRb), Ki67]. Exploratory endpoints included molecular profiling of tumor and ctDNA and the relationship to clinical outcome.
AEs were graded by NCI CTCAE version 4.03.

[1] = Part 2C 25 mg BID IR + Fulvestrant, N = 28
[2] = parts 1 and 2, N = 151, all cycles

SMILES: C[C@@]1(O)CCC[C@H]1n1c(=O)c(C(F)F)cc2cnc(NC3CCN(S(C)(=O)=O)CC3)nc21 [PF-06873600]
- Treatment-related TEAE, Headache, Grade 3/4 [1]: 0 n (%)
- Treatment-related TEAE, Headache, Grade 5 [1]: 0 n (%)
- Treatment-related TEAE, Headache, Total [1]: 9 (32.1) n (%)
- Treatment-related TEAE, Leukopenia, Grade 1 [1]: 3 (10.7) n (%)
- Treatment-related TEAE, Leukopenia, Grade 2 [1]: 3 (10.7) n (%)
- Treatment-related TEAE, Leukopenia, Grade 3/4 [1]: 0 n (%)
- Treatment-related TEAE, Leukopenia, Grade 5 [1]: 0 n (%)
- Treatment-related TEAE, Leukopenia, Total [1]: 6 (21.4) n (%)
- Treatment-related TEAE, Nausea, Grade 1 [1]: 12 (42.9 ) n (%)
- Treatment-related TEAE, Nausea, Grade 2 [1]: 7 (25.0) n (%)
- Treatment-related TEAE, Nausea, Grade 3/4 [1]: 0 n (%)
- Treatment-related TEAE, Nausea, Grade 5 [1]: 0 n (%)
- Treatment-related TEAE, Nausea, Total [1]: 19 (67.9 ) n (%)
- Treatment-related TEAE, Neutropenia, Grade 1 [1]: 1 (3.6) n (%)
- Treatment-related TEAE, Neutropenia, Grade 2 [1]: 2 (7.1) n (%)
- Treatment-related TEAE, Neutropenia, Grade 3/4 [1]: 6 (21.4) n (%)
- Treatment-related TEAE, Neutropenia, Grade 5 [1]: 0 n (%)
- Treatment-related TEAE, Neutropenia, Total [1]: 9 (32.1) n (%)
- Treatment-related TEAE, Thrombocytopenia, Grade 1 [1]: 1 (3.6) n (%)
- Treatment-related TEAE, Thrombocytopenia, Grade 2 [1]: 0 n (%)
- Treatment-related TEAE, Thrombocytopenia, Grade 3/4 [1]: 1 (3.6) n (%)
- Treatment-related TEAE, Thrombocytopenia, Grade 5 [1]: 0 n (%)
- Treatment-related TEAE, Thrombocytopenia, Total [1]: 2 (7.1) n (%)
- Treatment-related TEAE, Vomiting, Grade 1 [1]: 8 (28.6) n (%)
- Treatment-related TEAE, Vomiting, Grade 2 [1]: 4 (14.3) n (%)
- Treatment-related TEAE, Vomiting, Grade 3/4 [1]: 0 n (%)
- Treatment-related TEAE, Vomiting, Grade 5 [1]: 0 n (%)
- Treatment-related TEAE, Vomiting, Total [1]: 12 (42.9 ) n (%)
- All-causality SAE, abdominal pain (parts 1 and 2, 151 patients): 2.0%
- All-causality SAE, colitis (parts 1 and 2, 151 patients): 2.0%
- All-causality SAE, febrile neutropenia (parts 1 and 2, 151 patients): 3.3%
- All-causality SAE, hypotension (parts 1 and 2, 151 patients): 2.0%
- All-causality TEAE, alopecia (parts 1 and 2, 151 patients): 28.5%
- All-causality TEAE, anemia (parts 1 and 2, 151 patients): 44.4%
- All-causality TEAE, constipation (parts 1 and 2, 151 patients): 25.2%
- All-causality TEAE, diarrhea (parts 1 and 2, 151 patients): 22.5%
- All-causality TEAE, fatigue (parts 1 and 2, 151 patients): 43.7%
- All-causality TEAE, headache (parts 1 and 2, 151 patients): 29.1%
- All-causality TEAE, leukopenia (parts 1 and 2, 151 patients): 25.8%
- All-causality TEAE, nausea (parts 1 and 2, 151 patients): 62.9%
- All-causality TEAE, neutropenia (parts 1 and 2, 151 patients): 37.7%
- All-causality TEAE, vomiting (parts 1 and 2, 151 patients): 35.8%
- All-causality TEAEs, any, patients (parts 1 and 2, 151 patients): 97.4%
- All-causality serious adverse events (SAE), patients (parts 1 and 2, 151 patients): 22.5%
- Grade 3 all-causality TEAEs, patients (parts 1 and 2, 151 patients): 34.4%
- Grade 3 and grade 4 all-causality TEAEs, patients (parts 1 and 2, 151 patients): 45.7%
- Grade 3 treatment-related TEAEs, patients (parts 1 and 2, 151 patients): 25.8%
- Grade 4 all-causality TEAEs, patients (parts 1 and 2, 151 patients): 11.3%
- Grade 4 treatment-related TEAEs, patients (parts 1 and 2, 151 patients): 9.9%
- TEAE leading to dose interruptions, anemia (parts 1 and 2, 151 patients): 11.3%
- TEAE leading to dose interruptions, nausea (parts 1 and 2, 151 patients): 11.3%
- TEAE leading to dose interruptions, neutropenia (parts 1 and 2, 151 patients): 17.9%
- TEAE leading to dose reductions, fatigue (parts 1 and 2, 151 patients): 5.3%
- TEAE leading to dose reductions, nausea (parts 1 and 2, 151 patients): 4.6%
- TEAE leading to dose reductions, neutropenia (parts 1 and 2, 151 patients): 6.0%
- TEAEs leading to discontinuation, patients (parts 1 and 2, 151 patients): 7.3%
- TEAEs leading to dose interruptions, patients (parts 1 and 2, 151 patients): 51.7%
- TEAEs leading to dose reductions, patients (parts 1 and 2, 151 patients): 21.2%
- Treatment-related SAE, colitis (parts 1 and 2, 151 patients): 1.3%
- Treatment-related SAE, febrile neutropenia (parts 1 and 2, 151 patients): 3.3%
- Treatment-related SAE, neutropenia (parts 1 and 2, 151 patients): 1.3%
- Treatment-related SAE, stomatitis (parts 1 and 2, 151 patients): 1.3%
- Treatment-related SAEs, patients (parts 1 and 2, 151 patients): 8.6%
- Treatment-related TEAE, Alopecia, Grade 1 [2]: 21 (13.9) n (%)
- Treatment-related TEAE, Alopecia, Grade 2 [2]: 21 (13.9) n (%)
- Treatment-related TEAE, Alopecia, Grade 3/4 [2]: 0 n (%)
- Treatment-related TEAE, Alopecia, Grade 5 [2]: 0 n (%)
- Treatment-related TEAE, Alopecia, Total [2]: 42 (27.8) n (%)
- Treatment-related TEAE, Anemia, Grade 1 [2]: 13 (8.6) n (%)
- Treatment-related TEAE, Anemia, Grade 2 [2]: 28 (18.5) n (%)
- Treatment-related TEAE, Anemia, Grade 3/4 [2]: 21 (13.9) n (%)
- Treatment-related TEAE, Anemia, Grade 5 [2]: 0 n (%)
- Treatment-related TEAE, Anemia, Total [2]: 62 (41.1) n (%)
- Treatment-related TEAE, Any AE, Grade 1 [2]: 27 (17.9) n (%)
- Treatment-related TEAE, Any AE, Grade 2 [2]: 55 (36.4) n (%)
- Treatment-related TEAE, Any AE, Grade 3/4 [2]: 54 (35.8) n (%)
- Treatment-related TEAE, Any AE, Grade 5 [2]: 2 (1.3) n (%)
- Treatment-related TEAE, Any AE, Total [2]: 138 (91.4) n (%)
- Treatment-related TEAE, Constipation, Grade 1 [2]: 13 (8.6) n (%)
- Treatment-related TEAE, Constipation, Grade 2 [2]: 10 (6.6) n (%)
- Treatment-related TEAE, Constipation, Grade 3/4 [2]: 0 n (%)
- Treatment-related TEAE, Constipation, Grade 5 [2]: 0 n (%)
- Treatment-related TEAE, Constipation, Total [2]: 23 (15.2) n (%)
- Treatment-related TEAE, Diarrhea, Grade 1 [2]: 21 (13.9) n (%)
- Treatment-related TEAE, Diarrhea, Grade 2 [2]: 4 (2.6) n (%)
- Treatment-related TEAE, Diarrhea, Grade 3/4 [2]: 2 (1.3) n (%)
- Treatment-related TEAE, Diarrhea, Grade 5 [2]: 0 n (%)
- Treatment-related TEAE, Diarrhea, Total [2]: 27 (17.9) n (%)
- Treatment-related TEAE, Fatigue, Grade 1 [2]: 23 (15.2) n (%)
- Treatment-related TEAE, Fatigue, Grade 2 [2]: 25 (16.6) n (%)
- Treatment-related TEAE, Fatigue, Grade 3/4 [2]: 12 (7.9) n (%)
- Treatment-related TEAE, Fatigue, Grade 5 [2]: 0 n (%)
- Treatment-related TEAE, Fatigue, Total [2]: 60 (39.7) n (%)
- Treatment-related TEAE, Headache, Grade 1 [2]: 28 (18.5) n (%)
- Treatment-related TEAE, Headache, Grade 2 [2]: 4 (2.6) n (%)
- Treatment-related TEAE, Headache, Grade 3/4 [2]: 0 n (%)
- Treatment-related TEAE, Headache, Grade 5 [2]: 0 n (%)
- Treatment-related TEAE, Headache, Total [2]: 32 (21.2) n (%)
- Treatment-related TEAE, Leukopenia, Grade 1 [2]: 5 (3.3) n (%)
- Treatment-related TEAE, Leukopenia, Grade 2 [2]: 23 (15.2) n (%)
- Treatment-related TEAE, Leukopenia, Grade 3/4 [2]: 9 (6.0) n (%)
- Treatment-related TEAE, Leukopenia, Grade 5 [2]: 0 n (%)
- Treatment-related TEAE, Leukopenia, Total [2]: 37 (24.5) n (%)
- Treatment-related TEAE, Nausea, Grade 1 [2]: 65 (43.0) n (%)
- Treatment-related TEAE, Nausea, Grade 2 [2]: 26 (17.2) n (%)
- Treatment-related TEAE, Nausea, Grade 3/4 [2]: 1 (0.7) n (%)
- Treatment-related TEAE, Nausea, Grade 5 [2]: 0 n (%)
- Treatment-related TEAE, Nausea, Total [2]: 92 (60.9) n (%)
- Treatment-related TEAE, Neutropenia, Grade 1 [2]: 6 (4.0) n (%)
- Treatment-related TEAE, Neutropenia, Grade 2 [2]: 19 (12.6) n (%)
- Treatment-related TEAE, Neutropenia, Grade 3/4 [2]: 31 (20.5) n (%)
- Treatment-related TEAE, Neutropenia, Grade 5 [2]: 0 n (%)
- Treatment-related TEAE, Neutropenia, Total [2]: 56 (37.1) n (%)
- Treatment-related TEAE, Thrombocytopenia, Grade 1 [2]: 16 (10.6) n (%)
- Treatment-related TEAE, Thrombocytopenia, Grade 2 [2]: 4 (2.6) n (%)
- Treatment-related TEAE, Thrombocytopenia, Grade 3/4 [2]: 9 (6.0) n (%)
- Treatment-related TEAE, Thrombocytopenia, Grade 5 [2]: 0 n (%)
- Treatment-related TEAE, Thrombocytopenia, Total [2]: 29 (19.2) n (%)
- Treatment-related TEAE, Vomiting, Grade 1 [2]: 38 (25.2) n (%)
- Treatment-related TEAE, Vomiting, Grade 2 [2]: 12 (7.9) n (%)
- Treatment-related TEAE, Vomiting, Grade 3/4 [2]: 1 (0.7) n (%)
- Treatment-related TEAE, Vomiting, Grade 5 [2]: 0 n (%)
- Treatment-related TEAE, Vomiting, Total [2]: 51 (33.8) n (%)
